Marks after values point to notes of the source that are not given here.
How the values were obtained:
Type in all cases: in vivo
[1] = system: PUCCINIA RECONDITA; assay: Foliar fungal disease test on plants (Example 29), Puccinia recondita on wheat; conditions: 100 ppm a.i. foliar spray plus root drench approx. 40 ppm ai./dry soil, mostly protectant, applied 1-2 days before inoculation
Method: (§1) The compounds were tested against a variety of mainly foliar fungal diseases of plants. The techniques employed were as follows.
(§2) For all tests the plants were grown in John Innes Potting Compost (No. 1 or 2) in 4 cm diameter minipots. The test compounds were formulated either by bead milling with aqueous Dispersol T or as a solution in acetone or acetone/ethanol which was diluted to the required concentration immediately before use. The solutions or suspensions (100 ppm ia.) were sprayed on the foliage and applied to the roots of the plant via the soil. The sprays were applied to maximum retention and the root drenches to a final concentration equivalent to approximately 40 ppm ai./dry soil. "TWEEN" 20, to give a final concentration of 0.05%, was added when the sprays were applied to cereals. (a.i. means "active ingredient"). The word "TWEEN" is a Trade Mark.
(§3) Most were protectant tests where the compound was applied to the soil and roots and to the foliage one or two days before the plant was inoculated with the pathogen. The foliar pathogens were applied by spraying as spore suspensions onto the leaves of the test plants.
(§4) After inoculation, the plants were placed in an appropriate environment to allow infection to proceed and then incubated until the disease was ready for assessment. The period between inoculation and assessment varied from four to fourteen days according to the disease and the environment.
(§5) Disease control was recorded using the following grading system : • 4 = no disease • 3 = trace to 5% of disease on untreated plants • 2 = 6-25% of disease on untreated plants • 1 = 26-59% of disease on untreated plants • 0 = 60-100% of disease on untreated plants

[2] = system: VENTURIA INAEQUALIS; assay: Foliar fungal disease test on plants (Example 29), Venturia inaequalis on apples; conditions: 100 ppm a.i. foliar spray plus root drench approx. 40 ppm ai./dry soil, mostly protectant, applied 1-2 days before inoculation
Method: as §1, §2, §3, §4, §5

[3] = system: P[…]; conditions: 100 ppm a.i. foliar spray plus root drench approx. 40 ppm ai./dry soil, mostly protectant, applied 1-2 days before inoculation
[4] = system: CERCOSPORA ARACHIDICOLA; assay: Foliar fungal disease test on plants (Example 29), Cercospora arachidicola on peanuts; conditions: 100 ppm a.i. foliar spray plus root drench approx. 40 ppm ai./dry soil, mostly protectant, applied 1-2 days before inoculation
Method: as §1, §2, §3, §4, §5

[5] = system: […]; assay: Foliar fungal disease test on plants (Example 29), […] on vines; conditions: 100 ppm a.i. foliar spray plus root drench approx. 40 ppm ai./dry soil, mostly protectant, applied 1-2 days before inoculation
Method: as §1, §2, §3, §4, §5

[6] = system: […]; assay: Root drench test against Plasmopara viticola on vines (Example 30); conditions: vines (variety ohanez), 25 ppm, approx. 10 ppm compound/dry soil, inoculated after 2 days, assessed six days later
Method: This Example illustrates the activity of the invention compounds against the disease Plasmopara viticola on vines.
For the test on Plasmopara viticola the vine plants (variety ohanez) were grown in John Innes Potting Compost (No. 1 or 2) in 4 cm diameter minipots. The test compounds were formulated either by bead milling with aqueous Dispersol T or as a solution in acetone or acetone/ ethanol which was diluted to a concentration of 25 ppm of the compound immediately before use. The solutions or suspensions were applied as a root drench to a final concentration equivalent to approximately 10 ppm compound/dry soil. After 2 days the plants were inoculated with the pathogen, and then placed in a humidity cabinet to allow infection to proceed, and the assessment carried out six days later.
The disease grading system was as for Example 29.

[7] = system: […]; assay: as above; conditions: vines (variety ohanez), test concentration 30 ppm (marked *), inoculated after 2 days, assessed six days later
[8] = system: Phytophthora infestans lycopersicii; conditions: tomato plants (variety Outdoor Girl); 100 ppm ai.; inoculated after 1 day; 24 hours humidity cabinet, assessed after a further 2 days

Row | Structure (SMILES) | Disease control PUCCINIA RECONDITA (WHEAT) [1] | Disease control VENTURIA INAEQUALIS (APPLES) [2] | Disease control P[…] (RICE) [3] | Disease control CERCOSPORA ARACHIDICOLA (PEANUTS) [4] | Disease control […] (VINES) [5] | Disease control […] (VINES) [6] | Disease control […] (VINES) [7] | Disease control Phytophthora infestans (tomatoes) [8]
1 | CON=C(C#N)C(=O)NC(C#N)c1ccco1 (stereo not drawn) [Compound 63, 2-cyano-2-methoxyimino-N-[(2-furyl)-α-cyano-methyl]-acetamide] | 2 (2 = 6-25% of disease on untreated plants) | 0 (0 = 60-100% of disease on untreated plants) | 0 (0 = 60-100% of disease on untreated plants) | 0 (0 = 60-100% of disease on untreated plants) | 4 | 4 |  | 
2 | CON=C(C#N)C(=O)NCC(=O)OC [Compound 24, methoxycarbonylmethyl-(2-cyano-2-methoxyimino)-acetamide] | 1 (1 = 26-59% of disease on untreated plants) | 0 (0 = 60-100% of disease on untreated plants) | 0 (0 = 60-100% of disease on untreated plants) | 2 (2 = 6-25% of disease on untreated plants) | 4 | 0 (0 = 60-100% of disease on untreated plants) |  | 
3 | CON=C(C#N)C(=O)NCC(I)=CI [Compound 7, 2-cyano-2-methoxyimino-N-2,3-diiodo-allylacetamide] | 0 (0 = 60-100% of disease on untreated plants) | 0 (0 = 60-100% of disease on untreated plants) | 2 (2 = 6-25% of disease on untreated plants) | 0 (0 = 60-100% of disease on untreated plants) | 4 |  | 2* (2 = 6-25% of disease on untreated plants) | 
4 | C#CCN(CC#C)C(=O)C(C#N)=NOC [Compound 9, 2-cyano-2-methoxyimino-N,N-dipropargyl-acetamide] | 2 (2 = 6-25% of disease on untreated plants) | 0 (0 = 60-100% of disease on untreated plants) | 2 (2 = 6-25% of disease on untreated plants) | 0 (0 = 60-100% of disease on untreated plants) | 4 |  | 3* (3 = trace to 5% of disease on untreated plants) | 
5 | CON=C(C#N)C(=O)NC(C)C#N (stereo not drawn) [Compound 34, 2-cyano-2-methoxyimino-N-(α-cyanoethyl)-acetamide] | 4 | 0 (0 = 60-100% of disease on untreated plants) | 0 (0 = 60-100% of disease on untreated plants) | 0 (0 = 60-100% of disease on untreated plants) | 4 | 4 |  | 3 (3 = trace to 5% of disease on untreated plants)
6 | CON=C(C#N)C(=O)NCC(N)=S [Compound 54, 2-cyano-2-methoxyimino-N-(thio-carbamoylmethyl)-acetamide] | 3 (3 = trace to 5% of disease on untreated plants) | 0 (0 = 60-100% of disease on untreated plants) | 0 (0 = 60-100% of disease on untreated plants) | 3 (3 = trace to 5% of disease on untreated plants) | 4 | 4 |  | 3 (3 = trace to 5% of disease on untreated plants)
7 | N#CCNC(=O)C(C#N)=NO [Compound 31, 2-cyano-2-oximino-N-(cyanomethyl)-acetamide] | 0 (0 = 60-100% of disease on untreated plants) | 0 (0 = 60-100% of disease on untreated plants) | 2 (2 = 6-25% of disease on untreated plants) | 0 (0 = 60-100% of disease on untreated plants) | 0 (0 = 60-100% of disease on untreated plants) |  |  | 
8 | CON=C(C#N)C(=O)NCC#N [Compound 20, 2-cyano-2-methoxyimino-N-(cyanomethyl)-acetamide] | 3 (3 = trace to 5% of disease on untreated plants) | 3 (3 = trace to 5% of disease on untreated plants) | 1 (1 = 26-59% of disease on untreated plants) | 2 (2 = 6-25% of disease on untreated plants) | 4 | 4 |  | 2 (2 = 6-25% of disease on untreated plants)
9 | CCON=C(C#N)C(=O)NCC#N [Compound 22, 2-cyano-2-ethoxyimino-N-(cyanomethyl)-acetamide] | 3 (3 = trace to 5% of disease on untreated plants) | 4 | 3 (3 = trace to 5% of disease on untreated plants) | 3 (3 = trace to 5% of disease on untreated plants) | 4 | 4 |  | 
10 | C#CCN(CC=C)C(=O)C(C#N)=NOC [Compound 10, 2-cyano-2-methoxyimino-N-(propargyl)-N-allylacetamide] | 0 (0 = 60-100% of disease on untreated plants) | 0 (0 = 60-100% of disease on untreated plants) | 0 (0 = 60-100% of disease on untreated plants) | 2 (2 = 6-25% of disease on untreated plants) | 3 (3 = trace to 5% of disease on untreated plants) | 2 (2 = 6-25% of disease on untreated plants) |  | 
11 | C#CCNC(=O)C(C#N)=NOC [Compound 1, 2-cyano-2-methoxyimino-N-propargylacetamide] | 4 | 2 (2 = 6-25% of disease on untreated plants) | 3 (3 = trace to 5% of disease on untreated plants) | 2 (2 = 6-25% of disease on untreated plants) | 4 | 4 |  | 
12 | CON=C(C#N)C(=O)Nc1nccs1 [Compound 25, 2-cyano-2-methoxyimino-N-2-thiazolylacetamide] | 3 (3 = trace to 5% of disease on untreated plants) | 2 (2 = 6-25% of disease on untreated plants) | 0 (0 = 60-100% of disease on untreated plants) | 0 (0 = 60-100% of disease on untreated plants) | 4 | 0 (0 = 60-100% of disease on untreated plants) |  | 2 (2 = 6-25% of disease on untreated plants)

— EP0201999A1 (priority 1985, dated 1986)
